{"source": "patent US20040132969A1", "about": "“Antibodies, peptides, analogs and uses thereof” (priority 2000, published 2004)", "key": {"[1]": {"tested_on": "chick chorioallantoic membrane (CAM)", "assay": "CAM cell proliferation assay (DNA synthesis, methyl-[3H]thymidine), substance alone", "format": "in vivo", "method": "(§1) Cell proliferation was measured using the chick chorioallantoic membrane (CAM) model as described previously (4, 29, 30).\n(§2) Briefly, on day zero, fertile hens' eggs, are placed in an egg incubator 37.5° C. with pointed ends facing downwards. On day 3, using a 2 ml syringe with a 21G needle, 2 ml of albumen is removed and the eggs returned to the incubator. On day 4, each egg is punctured by a needle at the blunt end into the air space. A square of shell is then removed, causing the egg contents to drop into the space left by collapse of the air space at the end of the egg and the withdrawal of albumen. The volume of the space above the dropped CAM is approximately 7 ml. The square opening in the shell is covered with Sellotape (RTM). The eggs then have to be kept level in the incubator without tilting. On day 10, the surviving eggs are organised into groups of preferably no less than 10. Test and control samples are prepared and each egg receives 0.3 ml of sample injected through the Sellotape (RTM) onto the upper surface of the CAM.\nThe technique of removal of each CAM is simple but crucial to the rationale of achieving results expressed as total DPM per CAM. […]\n(§3) The assay used is based on quantitative measurement of DNA synthesis in the CAM after exposure to control and test substances 18 h after application in liquid form to the whole “dropped” area of each CAM (4,29). […]"}, "[2]": {"tested_on": "human umbilical vein endothelial cells (HUVEC) co-cultured with primary human diploid fibroblasts", "assay": "Angiosys co-culture angiogenesis assay (HUVEC tubule formation)", "format": "cell-based", "excerpt": "The recently developed Angiosys™ co-culture angiogenesis assay (TCS Cell Works, Botolph Claydon, UK) was employed to examine the biological activity of the fibrin E analogue peptides WTM33, WTM34, WTM35, WTM36, and WTM37. This assay involves the co-culturing of human umbilical vein endothelial cells (HUVEC) with primary human diploid fibroblasts. In control cultures treated by the standard method as supplied by the manufacturers, both cell populations increase in number to form a confluent fibroblast monolayer on top off which the HUVEC cells form into corded structures. These structures thicken and anastomose by day 14 to form an intricate network of microvessel-like structures that resemble a capillary bed. It has previously been shown that the control conditions in this assay result in an intermediate degree of formation of these microtubules that can be enhanced by angiogenic effectors such as vascular endothelial growth factor (VEGF), or reduced by anti-angiogenic agents such as suramin (33).\nThe Angiosys™ assay was used as directed by the manufacturer. Briefly, HUVEC and human diploid fibroblasts were admixed, seeded into 24-well culture plates and incubated for 14 days in endothelial cell culture medium (ECM, TCS Cell Works). This medium, which was replaced with fresh every second day, contains angiogenic factors such as VEGF. Fibrin E analogue peptides were dissolved in this same medium to the indicated concentrations and applied to the cells in the same way as control medium. After the incubation period of 14 days, medium was removed and the cells were fixed in situ at room temperature in 70% ethanol and viewed with an MRC 600 confocal microscope (Bio-Rad). Images were captured using a JVC videocamera mounted on the microscope and coupled to a Neotech Image Grabber/PC.\nThe table illustrates the […] effects of peptide WTM 35 and 36 (0.19-0.75 μg/ml) on HUVEC tubule formation in the Angiosys™ co-culture angiogenesis assay, compared with an untreated control. The table show the average tubule length obtained using an image analysis package for the PC which transforms the visual data into pixels: […]"}, "[3]": {"tested_on": "FDP induced cell proliferation in the chick CAM", "assay": "CAM cell proliferation assay in the presence of FDP", "format": "in vivo", "method": "as §1, §2\nThe technique of removal of each CAM is simple but crucial to the rationale of achieving results expressed as total DPM per CAM. By 20 min, methyl-[^3H]thymidine is incorporated only into the CAM which has been directly exposed. Beyond 30 min, [^3H]thymidine becomes detectable in adjacent CAM that is applied to the shell, via uptake from the bloodstream. Each CAM is removed by holding the egg in the palm of one hand, Sellotape window face down, and piercing the side with pointed scissors well above the level of the dropped CAM. Scissors are used to cut round the shell, and the residual yolk and embryo tipped out into a disposal container once the umbilical vessels connecting the embryo to the CAM are cut. […]\nas §3"}}, "note": "Entries after “also recorded” stand apart in the source; their conditions may differ.", "data": [{"sequence": "LHADPDLGVLCPTGC [WTM34]", "values": [{"measurement": "maximum inhibition in the CAM assay", "setting": "[1]; peptide alone, highest dose tested (20 micromoles)", "value": 60, "unit": "%"}, {"measurement": "effect on cell proliferation relative to control", "setting": "[1]; substance alone, across the range of concentrations tested", "value": "inherent inhibitory effect on cell stimulation; also recorded: inhibits cell proliferation and vessel formation in the CAM; also recorded: inhibitory effects"}, {"measurement": "HUVEC tubule formation (in words)", "setting": "[2]; 0.75, 0.38 and 0.19 μg/ml", "value": "inhibit HUVEC tubule formation; also recorded: complete inhibition - no tubule"}, {"measurement": "toxic effect (number of fibroblasts and endothelial cells present)", "setting": "[2]; Angiosys system", "value": "did not have a toxic effect"}, {"measurement": "HUVEC tubule formation (in words)", "setting": "[2]; across the range of / all concentrations", "value": "inhibition of HUVEC tubule formation; also recorded: most inhibitory"}, {"measurement": "HUVEC tubule formation (in words)", "setting": "[2]; lowest applied doses of 3 μg/ml", "value": "markedly reduced the formation of tubules"}, {"measurement": "effect on FDP-induced stimulation of cell proliferation", "setting": "[3]; low / lower concentrations of peptide, 5 μM FDPs", "value": "significant inhibition of the FDP induced stimulation"}, {"measurement": "effect on FDP-induced stimulation of cell proliferation", "setting": "[3]; peptide at 4.633 μM and 9.265 μM, 5 μM FDPs", "value": "does not appear to affect the FDP-induced stimulation of cell proliferation"}, {"measurement": "effect on FDP-induced stimulation of cell proliferation", "setting": "[3]; peptide in the presence of FDPs (5 μM) / fibrin", "value": "some inhibitory effect"}]}]}
